The values below come from US20240124504A1, “AROMATIC HETEROCYCLIC COMPOUND, AND PHARMACEUTICAL COMPOSITION AND APPLICATION THEREOF” (GT APEIRON THERAPEUTICS LIMITED, priority 2020, published 2024).

The target in assay [1] is T1, CDK12 (aa686-1082)/cyclinK complex (Homo sapiens, UniProt Q9NYV4).
T1 construct: A CDK12 (aa686-1082)/cyclinK complex (50 nM)
Description: In-vitro enzymatic inhibitory activity testing, CDK12 inhibition assay (Caliper EZ Reader II). The format is biochemical. The settings on record: CDK12/cyclinK 50 nM, 180 min at 27° C.; read-out: CDK12 IC50. The protocol: An assay was carried out in a U-bottom 384-well plate (coming, 4512#), and the reaction temperature was 27° C. CDK7/CyclinH was diluted in an assay buffer (20 mM MES PH 6.75, 0.01% Tween 20, 50 ug/mL BSA, 6 mM MgCl2) to afford a corresponding enzyme solution with the 2.4× concentration. CDK2/CyclinE1 was diluted in an assay buffer (20 mM MES PH 6.75, 0.01% Tween 20, 50 ug/mL BSA, 6 mM MgCl2) to afford a corresponding enzyme solution with the 2.4× concentration. CDK9/CyclinT1 was diluted in an assay buffer (20 mM MES PH 6.75, 0.01% Tween 20, 50 ug/mL BSA, 10 mM MgCl2) to afford a corresponding enzyme solution with the 2.4× concentration. CDK12/CyclinK was diluted in an assay buffer (80 mM MES PH 6.5, 0.01% Tween 20, 50 ug/mL BSA, 10 mM MgCl2) to afford a corresponding enzyme solution with the 2.4 concentration. A compound was dissolved in dimethyl sulfoxide (DMSO) at a concentration of 10 mM. During use, the compound was diluted with DMSO into 10 concentration gradients from 25 nM to 500 uM, and respectively diluted by 8.3 folds in the assay buffer to afford a compound solution with a 6× concentration. A polypeptide substrate and ATP were diluted in the assay buffer to afford a polypeptide substrate and ATP mixed solution with a 2.4× concentration. 2 ul of a test compound solution was mixed with 5 ul of the enzyme solution; after incubation for 10 min, 5 ul of the polypeptide substrate and ATP mixed solution was added; incubation was carried out for 180 min at 27° C.; and then, the reaction was terminated by adding 4 uL of EDTA with a concentration of 120 mM to each sample. […]. Specifically, a CDK7/cyclinH/MAT1 complex (6 nM) and a “5-FAMCD K 7 tide” peptide substrate (2 μM, synthetic fluorophore-labeled peptide with the following sequence: 5-FAM-[…], wherein “5-FAM” refers to 5-carboxyfluorescein) were used for a CDK7 inhibition assay. A CDK9/cyclinT1 complex (8 nM) and a “5-FAM-CDK9tide” peptide substrate (2 IM, synthetic fluorophore-labeled peptide with the following sequence: 5-FAM-GSRTPMY-NH2, wherein 5-FAM was as defined above and NH2 represented C-terminal amide) were used for a CDK9 inhibition assay. A CDK12 (aa686-1082)/cyclinK complex (50 nM) and “5-FAM-CDK9tide” (2 μM) as defined above were used for a CDK12 inhibition assay. A CDK2/cyclinE1 complex (0.5 nM) and “5-FAM-CDK7tide” (2 μM) as defined above were used for CDK2 inhibition assay.
(§1) A reaction mixture was analyzed on Caliper EZ Reader II by electrophoretic separation of a fluorogenic substrate and a phosphorylated product. Data were calculated by using GraphPad Prism version 6.0, and IC50 values were adjusted and obtained by using a nonlinear regression model of a dose response curve.

For a further assay, the target named is CDK9/cyclinT1 complex (Homo sapiens, UniProt P50750). Description: In-vitro enzymatic inhibitory activity testing, CDK9 inhibition assay (Caliper EZ Reader II). In kind it is biochemical. The settings on record: CDK9/cyclinT1 8 nM, 180 min at 27° C. The protocol:
(§2) CDK12/CyclinK was diluted in an assay buffer (80 mM MES PH 6.5, 0.01% Tween 20, 50 ug/mL BSA, 10 mM MgCl2) to afford a corresponding enzyme solution with the 2.4 concentration. A compound was dissolved in dimethyl sulfoxide (DMSO) at a concentration of 10 mM. […] 2 ul of a test compound solution was mixed with 5 ul of the enzyme solution; after incubation for 10 min, 5 ul of the polypeptide substrate and ATP mixed solution was added; incubation was carried out for 180 min at 27° C.; and then, the reaction was terminated by adding 4 uL of EDTA with a concentration of 120 mM to each sample. […] A CDK9/cyclinT1 complex (8 nM) and a “5-FAM-CDK9tide” peptide substrate (2 IM, synthetic fluorophore-labeled peptide with the following sequence: 5-FAM-GSRTPMY-NH2, wherein 5-FAM was as defined above and NH2 represented C-terminal amide) were used for a CDK9 inhibition assay. […] A CDK2/cyclinE1 complex (0.5 nM) and “5-FAM-CDK7tide” (2 μM) as defined above were used for CDK2 inhibition assay.
as §1

The next assay has as its system ovarian cancer A2780. Description: Cell biological activity detection (CyQuant, 72 hours), A2780. The settings on record: Homo sapiens, A2780, 72 h, A2780 cells, incubation for 72 hours. The format is cell-based, human. The protocol:
(§3) A2780 and HCC70 cells were subjected to trypsin digestion treatment, and cell suspensions were respectively transferred to 15 mL centrifuge tubes and centrifuged for 5 min at […]) rpm; supernatant was discarded, and resuspension was carried out in a fresh medium (RPMI 1640+10% FBS), after counting, cells were seeded into a 384-well plate at 2000/well (50 μL of 1640+10% FBS medium was added to the 2nd column and the 23rd column of the 384-well plate, and 50 μL of DPBS was added to the surrounding wells). Incubation was carried out overnight in an incubator (37° C., 5% CO2).
(§4) The compound was added to the well plates the next day. The compound had the highest concentration of 10 μM and was diluted at 1:4, and there were a total of 9 concentrations; and a positive compound Paclitaxel had the highest concentration of 1 μM and was diluted at 1:3, and there were a total of 9 concentrations. The DMSO content in each well was unified to 0.2%. The cell plates were centrifuged for 30 seconds at 800 rpm and placed in an incubator (37° C., 5% CO2) for incubation for 72 hours. On the fourth day, a Cyquant reagent (3×) was formulated according to kit instructions, and formulation was carried out for each 384-well plate according to the following proportions: DPBS 11.568 mL, CyQuant®? Direct nucleic acid stain 72 μL, and CyQuant® Direct background suppressor 360 μL. After uniform mixing, the reagent was placed at room temperature for further use. The cell plates were taken out and equilibrated for 30 min at room temperature, and 25 μL of the Cyquant reagent (3×) per well was dispensed into the cells of the 384-well plates by Multi-drop, and incubation was carried out for more than 60 minutes at 37° C. Acumen plate reading (Acumen setting: an excitation wavelength of 488 nm). IC50 results were analyzed by XLFIT5 from IDBS Company.

The target of assay [2] is CDK7/cyclinH/MAT1 complex (Homo sapiens, UniProt P50613). In words: In-vitro enzymatic inhibitory activity testing, CDK7 inhibition assay (Caliper EZ Reader II). The settings on record: CDK7/cyclinH/MAT1 6 nM, 180 min at 27° C. In kind it is biochemical. On the procedure:
as §2, §1

A further assay concerns the target CDK2/cyclinE1 complex (Homo sapiens, UniProt P24941). Description: In-vitro enzymatic inhibitory activity testing, CDK2 inhibition assay (Caliper EZ Reader II). In kind it is biochemical. The settings on record: CDK2/cyclinE1 0.5 nM, 180 min at 27° C. On the procedure: CDK12/CyclinK was diluted in an assay buffer (80 mM MES PH 6.5, 0.01% Tween 20, 50 ug/mL BSA, 10 mM MgCl2) to afford a corresponding enzyme solution with the 2.4 concentration. […] A CDK9/cyclinT1 complex (8 nM) and a “5-FAM-CDK9tide” peptide substrate (2 IM, synthetic fluorophore-labeled peptide with the following sequence: 5-FAM-GSRTPMY-NH2, wherein 5-FAM was as defined above and NH2 represented C-terminal amide) were used for a CDK9 inhibition assay. […] A CDK2/cyclinE1 complex (0.5 nM) and “5-FAM-CDK7tide” (2 μM) as defined above were used for CDK2 inhibition assay.
as §1

Assay [3] has as its system human breast cancer cells HCC70. Description: Cell biological activity detection (CyQuant, 72 hours), HCC70. The settings on record: Homo sapiens, HCC70, 72 h, incubation for 72 hours. In kind it is cell-based. On the procedure: as §3, §4

The structures appear in SMILES notation.

Chain of CDK7/cyclinH/MAT1 complex (P50613 whole entry, species assumed): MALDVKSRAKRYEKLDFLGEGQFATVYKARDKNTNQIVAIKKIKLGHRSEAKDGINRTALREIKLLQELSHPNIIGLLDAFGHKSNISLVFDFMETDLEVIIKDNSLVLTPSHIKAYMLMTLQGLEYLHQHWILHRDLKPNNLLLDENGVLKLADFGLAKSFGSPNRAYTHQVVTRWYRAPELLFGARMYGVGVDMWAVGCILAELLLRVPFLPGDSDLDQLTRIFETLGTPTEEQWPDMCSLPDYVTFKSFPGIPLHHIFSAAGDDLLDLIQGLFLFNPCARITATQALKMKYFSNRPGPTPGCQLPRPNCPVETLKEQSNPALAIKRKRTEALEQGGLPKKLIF
Chain of CDK7/cyclinH/MAT1 complex (P51946 whole entry partner, species assumed): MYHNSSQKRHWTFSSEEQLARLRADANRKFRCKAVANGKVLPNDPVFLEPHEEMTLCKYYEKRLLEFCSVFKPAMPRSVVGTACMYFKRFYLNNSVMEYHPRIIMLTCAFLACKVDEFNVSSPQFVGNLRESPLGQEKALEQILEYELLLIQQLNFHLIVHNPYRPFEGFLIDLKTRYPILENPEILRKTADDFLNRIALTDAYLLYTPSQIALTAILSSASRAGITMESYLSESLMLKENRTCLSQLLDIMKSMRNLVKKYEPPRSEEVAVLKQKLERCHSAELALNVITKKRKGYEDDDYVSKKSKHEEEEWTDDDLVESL
Chain of CDK7/cyclinH/MAT1 complex (P51948 whole entry partner, species assumed): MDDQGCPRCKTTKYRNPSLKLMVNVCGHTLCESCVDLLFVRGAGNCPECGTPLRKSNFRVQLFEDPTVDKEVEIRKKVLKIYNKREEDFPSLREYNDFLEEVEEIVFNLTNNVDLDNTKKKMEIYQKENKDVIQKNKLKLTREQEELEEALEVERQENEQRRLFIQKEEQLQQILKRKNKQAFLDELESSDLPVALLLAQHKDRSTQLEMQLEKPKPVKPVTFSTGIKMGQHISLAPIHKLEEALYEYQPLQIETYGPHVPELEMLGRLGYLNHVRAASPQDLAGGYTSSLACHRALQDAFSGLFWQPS
Chain of CDK9/cyclinT1 complex (P50750 whole entry, species assumed): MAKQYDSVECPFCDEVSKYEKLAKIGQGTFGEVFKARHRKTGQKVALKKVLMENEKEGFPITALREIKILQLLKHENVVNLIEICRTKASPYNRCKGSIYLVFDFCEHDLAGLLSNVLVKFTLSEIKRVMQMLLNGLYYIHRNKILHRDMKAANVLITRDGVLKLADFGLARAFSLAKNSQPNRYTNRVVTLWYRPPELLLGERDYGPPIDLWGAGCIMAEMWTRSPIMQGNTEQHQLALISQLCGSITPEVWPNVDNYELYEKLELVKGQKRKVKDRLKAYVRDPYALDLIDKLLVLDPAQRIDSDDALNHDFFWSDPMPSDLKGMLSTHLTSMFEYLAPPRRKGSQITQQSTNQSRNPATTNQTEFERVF
Chain of CDK9/cyclinT1 complex (O60563 whole entry partner, species assumed): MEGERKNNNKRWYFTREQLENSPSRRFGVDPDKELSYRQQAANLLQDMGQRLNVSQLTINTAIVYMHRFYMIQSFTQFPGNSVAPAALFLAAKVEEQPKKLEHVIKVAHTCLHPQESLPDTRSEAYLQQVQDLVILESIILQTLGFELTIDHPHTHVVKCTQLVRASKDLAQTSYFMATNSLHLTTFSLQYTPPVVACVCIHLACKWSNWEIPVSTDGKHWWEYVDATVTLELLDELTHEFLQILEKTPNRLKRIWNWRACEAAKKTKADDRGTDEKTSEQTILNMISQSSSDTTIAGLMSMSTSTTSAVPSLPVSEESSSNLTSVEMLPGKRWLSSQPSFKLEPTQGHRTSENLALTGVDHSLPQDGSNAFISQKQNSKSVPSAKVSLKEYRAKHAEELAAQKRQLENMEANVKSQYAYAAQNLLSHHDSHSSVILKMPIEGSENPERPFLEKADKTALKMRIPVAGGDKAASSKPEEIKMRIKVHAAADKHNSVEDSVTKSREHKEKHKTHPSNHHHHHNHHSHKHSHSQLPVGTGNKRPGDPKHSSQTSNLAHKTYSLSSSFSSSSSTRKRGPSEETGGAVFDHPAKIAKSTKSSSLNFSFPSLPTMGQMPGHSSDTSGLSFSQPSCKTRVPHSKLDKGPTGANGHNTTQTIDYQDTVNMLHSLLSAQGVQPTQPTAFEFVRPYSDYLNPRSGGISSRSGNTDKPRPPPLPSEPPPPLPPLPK
T1 sequence (Q9NYV4 686-1082, species assumed): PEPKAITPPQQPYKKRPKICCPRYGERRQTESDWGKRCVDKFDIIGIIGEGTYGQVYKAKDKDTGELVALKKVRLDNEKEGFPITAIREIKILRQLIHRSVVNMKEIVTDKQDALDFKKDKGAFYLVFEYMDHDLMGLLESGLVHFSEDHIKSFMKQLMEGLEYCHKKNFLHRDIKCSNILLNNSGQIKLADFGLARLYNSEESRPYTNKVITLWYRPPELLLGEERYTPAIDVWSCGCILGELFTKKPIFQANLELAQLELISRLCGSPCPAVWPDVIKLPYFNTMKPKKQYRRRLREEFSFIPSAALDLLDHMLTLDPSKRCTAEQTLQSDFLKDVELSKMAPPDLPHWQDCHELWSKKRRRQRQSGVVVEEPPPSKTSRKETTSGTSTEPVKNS
T1 sequence (O75909 whole entry partner, species assumed, the tested form may be a part): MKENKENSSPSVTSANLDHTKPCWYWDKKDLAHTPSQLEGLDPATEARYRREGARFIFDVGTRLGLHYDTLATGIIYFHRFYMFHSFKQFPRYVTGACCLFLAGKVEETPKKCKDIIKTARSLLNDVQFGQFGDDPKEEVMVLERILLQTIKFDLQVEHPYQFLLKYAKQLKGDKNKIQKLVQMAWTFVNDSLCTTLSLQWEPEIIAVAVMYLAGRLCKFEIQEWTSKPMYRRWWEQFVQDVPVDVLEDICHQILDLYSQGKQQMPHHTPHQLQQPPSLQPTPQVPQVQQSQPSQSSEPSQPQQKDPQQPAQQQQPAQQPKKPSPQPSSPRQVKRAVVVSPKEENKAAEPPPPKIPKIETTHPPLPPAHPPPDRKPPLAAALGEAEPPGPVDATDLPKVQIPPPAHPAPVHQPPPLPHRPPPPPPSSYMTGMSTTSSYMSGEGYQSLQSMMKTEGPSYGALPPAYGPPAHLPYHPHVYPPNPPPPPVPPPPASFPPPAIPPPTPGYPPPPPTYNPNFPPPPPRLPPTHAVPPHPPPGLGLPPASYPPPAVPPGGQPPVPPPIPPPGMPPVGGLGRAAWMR

On to `CP(C)(=O)c1cccc2c(-c3nc(NC4(CO)CCCC4)ncc3C(F)(F)F)c[nH]c12` [Compound 116, (3-(2-((1-(hydroxymethyl)cyclopentyl)amino)-5-(trifluoromethyl)pyrimidin-4-yl)-1H-indole-7-yl)dimethylphosphine oxide], for which the IC50 in assay [1] is more than 50000 nM; at CDK9/cyclinT1 complex, more than 50000 nM; with ovarian cancer A2780 it was 20 to 200 nM; in assay [2], 20 to 200 nM; at CDK2/cyclinE1 complex, 5000 to 50000 nM; in assay [3], 20 to 200 nM.
For the compound `CP(C)(=O)c1c(C#N)ccc2c(-c3nc(N[C@H]4CC[C@H](N)C4)ncc3C(F)(F)F)c[nH]c12` [Compound 78, 3-(2-(((1S,3S)-3-aminocyclopentyl)amino)-5-(trifluoromethyl)pyrimidin-4-yl)-7-(dimethylphosphoryl)-1H-indole-6-carbonitrile], the IC50 was 5000 to 50000 nM in assay [1]; 5000 to 50000 nM on CDK9/cyclinT1 complex; less than 20 nM in the assay with ovarian cancer A2780; less than 20 nM in assay [2]; 5000 to 50000 nM at CDK2/cyclinE1 complex; less than 20 nM in assay [3].
For `FC(F)(F)c1cnc(NC2CCC3CNCC32)nc1-c1c[nH]c2nc(N3CCOCC3)ccc12` (stereo not drawn) [Compound 55, N-(4-(6-morpholinyl-1H-pyrrolo[2,3-b]pyridin-3-yl)-5-(trifluoromethyl)pyrimidin-2-yl)octahydrocyclopenta[c]pyrrol-4-amine], the IC50 in assay [1] is more than 50000 nM; on CDK9/cyclinT1 complex, more than 50000 nM; in the assay with ovarian cancer A2780 it was 20 to 200 nM; in assay [2], 20 to 200 nM; against CDK2/cyclinE1 complex, 5000 to 50000 nM; in assay [3], 200 to 5000 nM.
For `CP(C)(=O)c1cccc2c(-c3nc(N[C@H]4CC[C@H](N)C4)ncc3C(F)(F)F)c[nH]c12` [Compound 81], the IC50 was 200 to 5000 nM in assay [1]; 200 to 5000 nM against CDK9/cyclinT1 complex; less than 20 nM in the assay with ovarian cancer A2780; less than 20 nM in assay [2]; 200 to 5000 nM against CDK2/cyclinE1 complex; less than 20 nM in assay [3].
In the case of `C[C@H](Nc1ncc(C(F)(F)F)c(-c2c[nH]c3c(P(C)(C)=O)cccc23)n1)C(C)(C)O` [Compound 163, (S)-(3-(2-((3-hydroxy-3-methylbutan-2-yl)amino)-5-(trifluoromethyl)pyrimidin-4-yl)-1H-indole-7-yl)dimethylphosphine oxide], the IC50 is more than 50000 nM in assay [1]; more than 50000 nM on CDK9/cyclinT1 complex; 20 to 200 nM with ovarian cancer A2780; 20 to 200 nM in assay [2]; 5000 to 50000 nM against CDK2/cyclinE1 complex; 200 to 5000 nM in assay [3].
In the case of `CC1(C)COCC(Nc2ncc(C(F)(F)F)c(-c3c[nH]c4c(P(C)(C)=O)c(C#N)ccc34)n2)CN1` (stereo not drawn) [Compound 76, 3-(2-((3,3-dimethyl-1,4-oxazepan-6-yl)amino)-5-(trifluoromethyl)pyrimidin-4-yl)-7-(dimethylphosphoryl)-1H-indole-6-carbonitrile], the concentration for half-maximal inhibition (IC50) in assay [1] is more than 50000 nM; on CDK9/cyclinT1 complex, more than 50000 nM; in the assay with ovarian cancer A2780, 20 to 200 nM; in assay [2] it was 20 to 200 nM; against CDK2/cyclinE1 complex, more than 50000 nM; in assay [3], 20 to 200 nM.
On to `FC(F)(F)c1cnc(NC2CCCC3(CCNCC3)C2)nc1-c1c[nH]c2nc(N3CCOCC3)ccc12` (stereo not drawn) [Compound 41, N-(4-(6-morpholinyl-1H-pyrrolo[2,3-b]pyridin-3-yl)-5-(trifluoromethyl)pyrimidin-2-yl)-3-azaspiro[5.5]undecan-8-amine], for which the IC50 in assay [1] lay in the range of 5000 to 50000 nM; against CDK9/cyclinT1 complex it was 5000 to 50000 nM; in the assay on ovarian cancer A2780 it was 20 to 200 nM; in assay [2], 20 to 200 nM; at CDK2/cyclinE1 complex it was 5000 to 50000 nM; in assay [3], 200 to 5000 nM.
Turning to `CP(C)(=O)c1cccc2c(-c3nc(NC[C@H]4C[C@H]4CO)ncc3C(F)(F)F)c[nH]c12` [Compound 141, (3-(2-((((1S,2R)-2-(hydroxymethyl)cyclopropyl)methyl)amino)-5-(trifluoromethyl)pyrimidin-4-yl)-1H-indole-7-yl)dimethylphosphine oxide], the IC50 was more than 50000 nM in assay [1]; more than 50000 nM on CDK9/cyclinT1 complex; 20 to 200 nM in the assay on ovarian cancer A2780; less than 20 nM in assay [2]; 200 to 5000 nM at CDK2/cyclinE1 complex; 20 to 200 nM in assay [3].
For `C[C@H]1C[C@H](Nc2ncc(C(F)(F)F)c(-c3c[nH]c4nc(N5CCOCC5)ccc34)n2)CCN1` [Compound 53, N-((2S,4R)-2-methylpiperidin-4-yl)-4-(6-morpholinyl-1H-pyrrolo[2,3-b]pyridin-3-yl)-5-(trifluoromethyl)pyrimidin-2-amine], the IC50 (with ovarian cancer A2780; in assay [3]) was 200 to 5000 nM throughout.
As to `CP(C)(=O)c1cccc2c(-c3nc(NC4CC(F)(F)CC4O)ncc3C(F)(F)F)c[nH]c12` (single isomer, unassigned) [Compound 191], the IC50 was less than 20 nM in the assay with ovarian cancer A2780, less than 20 nM in assay [2], 200 to 5000 nM at CDK2/cyclinE1 complex and 20 to 200 nM in assay [3].

As a reminder, the IC50 is the point on the concentration scale where inhibition reaches its midpoint.
